Like-named read-outs stand apart in the source and are kept apart here.
How the values were obtained:
Tg.rasH2 mice = settings: for Incidence of lung adenoma, multiple / Incidence of lung adenoma, single / Incidence of lung carcinoma / Incidence of lung tumors, combined / Incidence of thymus, thymoma / Incidence of urethra papilloma / Incidence of Harderian gland carcinoma / Incidence of Harderian gland adenoma / Incidence of hemangiosarcoma, combined / Incidence of hemangiosarcoma, multicentric (includes abdominal skin and thoracic wall) / Incidence of hemangiosarcoma, spleen / Incidence of hemangiosarcoma, uterus / Incidence of hemangiosarcoma, vagina / Survival rate / Incidence of hemangiosarcoma, kidney / Incidence of hemangiosarcoma, spinal cord, lumbar: 26 weeks
Method: The vehicle was 0.5% carboxymethylcellulose (CMC) with 0.1% Tween 80 (v/v). The vehicle and pretomanid formulations were administered to mice by oral gavage once daily at a dosing volume of 10 mL/kg. Individual dose volumes were calculated based on each animal’s most recently recorded body weight. The dose formulations were magnetically stirred at room temperature for at least 30 minutes prior to and during dosing. The positive control was urethane in 0.9% sodium chloride and was administered via intraperitoneal injection for a total of three times. The positive control formulation was allowed to stand at room temperature for at least 30 minutes and inverted several times prior to dose administration. Aliquots (0.5 to 1.0 mL) were collected from the top, bottom, and middle of the first (week 1), interim (week 13), and last (week 25) pretomanid dose formulations to assess the accuracy of the concentration and/or homogeneity.
Male and female Tg.rasH2 [CByB6F1-Tg(HRAS)2Jic (+/−hemizygous c-Ha-ras)] mice (n = 110/sex) approximately 5 weeks of age were assigned to the main cohort groups to assess carcinogenicity. Male and female wild type CByB6F1 mice [CByB6F1-Tg(HRAS)2Jic (−/−homozygous c-Ha-ras)] (n = 34/sex) approximately 6 weeks of age were assigned to the cohort of mice used to assess the toxicokinetics of pretomanid and its M50 metabolite. […] All mice were obtained from Taconic Biosciences (Germantown, NY). The supplier verified that the mice were murine pathogen-free and females were nulliparous and non-pregnant. At the time of dosing initiation (Day 1), the toxicokinetic mice were approximately 8 weeks of age. On Day 1 of the study, the body weights of the main cohort mice ranged from 19.2 to 25.9 grams (males) and from 15.9 to 20.4 grams (females), and the body weights of the TK cohort mice ranged from 23.4 to 30.2 grams (males) and from 17.6 to 23.5 grams (females).
This study assessed the carcinogenic potential of pretomanid following repeated oral gavage administration once daily for 26 weeks in hemizygous Tg.rasH2 [CByB6F1-Tg(HRAS)2Jic (+/− hemizygous c-Ha-ras)] mice. This study also evaluated the TK profile of pretomanid and metabolite M50 in wild-type CByB6F1 [CByB6F1-Tg(HRAS)2Jic (−/−homozygous c-Ha-ras)] mice. The study was conducted under GLP regulations.
For carcinogenicity assessment (main cohort), 25 mice/sex were included in the vehicle control and pretomanid-treated groups. At the time of dosing initiation (Day 1), the main cohort mice used for assessing carcinogenicity were approximately 7 weeks of age and weighed between 15.9 to 20.4 g (females) and 19.2 to 25.9 g (males). Male groups (Groups 2, 4, and 6) received pretomanid in vehicle at doses of 5, 15, and 40 mg/kg/day, respectively. Female groups (Groups 3, 5, and 7) received pretomanid in vehicle at doses of 10, 30, and 80 mg/kg/day. Positive control mice (n = 10/sex) were included in the main cohort and received three intraperitoneal injections of urethane in saline (1000 mg/kg/injection) on Days 1, 3, and 5. The test and control articles were administered at a dose volume of 10 mL/kg body weight.
Clinical signs, body weights, and food consumption were assessed for the main cohort animals to monitor animal health and any potential toxicity from pretomanid administration. In-life measurements were recorded in Provantis™ Version 9.4.6.3 (Instem, Philadelphia, PA).
All animals, including those in the TK cohort, were observed twice daily for morbidity and mortality. For animals in the main cohort, cage side observations were performed on the day of dosing within 2 hours after the last animal in each group was dosed (Days 1, 3, and 5 for positive control animals).

mouse lymphoma cells = assay: Non-GLP in vitro mouse lymphoma assay; format: cell-based; settings: concentrations up to 1000 μg/mL, data not shown
[1] = female, Tg.rasH2 [CByB6F1-Tg(HRAS)2Jic (+/- hemizygous c-Ha-ras)], mouse, in vivo, po, 10 mg/kg/day
[2] = female, Tg.rasH2 [CByB6F1-Tg(HRAS)2Jic (+/- hemizygous c-Ha-ras)], mouse, in vivo, po, 30 mg/kg/day
[3] = female, Tg.rasH2 [CByB6F1-Tg(HRAS)2Jic (+/- hemizygous c-Ha-ras)], mouse, in vivo, po, 80 mg/kg/day
[4] = female, Tg.rasH2 [CByB6F1-Tg(HRAS)2Jic, hemizygous c-Ha-ras], mouse, in vivo, po, 10 mg/kg/day
[5] = female, Tg.rasH2 [CByB6F1-Tg(HRAS)2Jic, hemizygous c-Ha-ras], mouse, in vivo, po, 30 mg/kg/day
[6] = female, Tg.rasH2 [CByB6F1-Tg(HRAS)2Jic, hemizygous c-Ha-ras], mouse, in vivo, po, 80 mg/kg/day
[7] = male, Tg.rasH2 [CByB6F1-Tg(HRAS)2Jic (+/- hemizygous c-Ha-ras)], mouse, in vivo, po, 5 mg/kg/day
[8] = male, Tg.rasH2 [CByB6F1-Tg(HRAS)2Jic (+/- hemizygous c-Ha-ras)], mouse, in vivo, po, 15 mg/kg/day
[9] = male, Tg.rasH2 [CByB6F1-Tg(HRAS)2Jic (+/- hemizygous c-Ha-ras)], mouse, in vivo, po, 40 mg/kg/day
[10] = male, Tg.rasH2 [CByB6F1-Tg(HRAS)2Jic, hemizygous c-Ha-ras], mouse, in vivo, po, 5 mg/kg/day
[11] = male, Tg.rasH2 [CByB6F1-Tg(HRAS)2Jic, hemizygous c-Ha-ras], mouse, in vivo, po, 15 mg/kg/day
[12] = male, Tg.rasH2 [CByB6F1-Tg(HRAS)2Jic, hemizygous c-Ha-ras], mouse, in vivo, po, 40 mg/kg/day

## O=[N+]([O-])c1cn2c(n1)OC[C@@H](OCc1ccc(OC(F)(F)F)cc1)C2 [Pretomanid, (6S)-2-nitro-6-{[4-(trifluoromethoxy)benzyl]oxy}-6,7-dihydro-5H-imidazo[2,1-b][1,3]oxazine]
Tg.rasH2 mice; Group 3F, female, 10 mg/kg/d
  Early death: cause of death: Multicentric hemangiosarcoma
  Early death: day of death: 184
  Early death: interpretation: Natural death
Tg.rasH2 mice; Group 5F, female, 30 mg/kg/d
  Early death: cause of death: Caught in feeder
  Early death: day of death: 7
  Early death: interpretation: Accidental
Tg.rasH2 mice; Group 7F, female, 80 mg/kg/d (two animals)
  Early death: interpretation: Natural death
Tg.rasH2 mice; [1]
  Incidence of lung adenoma, multiple: 0%
  Incidence of lung adenoma, single: 0%
  Incidence of lung carcinoma: 0%
  Incidence of lung tumors, combined: 0%
  Incidence of thymus, thymoma: 4%
  Incidence of urethra papilloma: 0%
Tg.rasH2 mice; [2]
  Incidence of Harderian gland carcinoma: 0%
  Incidence of lung adenoma, multiple: 0%
  Incidence of lung adenoma, single: 4%
  Incidence of lung carcinoma: 0%
  Incidence of lung tumors, combined: 4%
  Incidence of thymus, thymoma: 0%
  Incidence of urethra papilloma: 0%
Tg.rasH2 mice; [3]
  Incidence of Harderian gland carcinoma: 8%
  Incidence of lung adenoma, multiple: 0%
  Incidence of lung adenoma, single: 0%
  Incidence of lung carcinoma: 8%
  Incidence of lung tumors, combined: 8%
  Incidence of thymus, thymoma: 0%
  Incidence of urethra papilloma: 4%
Tg.rasH2 mice; [4]
  Incidence of Harderian gland adenoma: 0%
  Incidence of Harderian gland carcinoma: 4%
  Incidence of hemangiosarcoma, combined: 8%
  Incidence of hemangiosarcoma, multicentric (includes abdominal skin and thoracic wall): 4%
  Incidence of hemangiosarcoma, spleen: 0%
  Incidence of hemangiosarcoma, uterus: 4%
  Incidence of hemangiosarcoma, vagina: 0%
Tg.rasH2 mice; [5]
  Incidence of Harderian gland adenoma: 8%
  Incidence of hemangiosarcoma, combined: 4%
  Incidence of hemangiosarcoma, multicentric (includes abdominal skin and thoracic wall): 0%
  Incidence of hemangiosarcoma, spleen: 0%
  Incidence of hemangiosarcoma, uterus: 0%
  Incidence of hemangiosarcoma, vagina: 4%
Tg.rasH2 mice; [6]
  Incidence of Harderian gland adenoma: 0%
  Incidence of hemangiosarcoma, combined: 8%
  Incidence of hemangiosarcoma, multicentric (includes abdominal skin and thoracic wall): 0%
  Incidence of hemangiosarcoma, spleen: 8%
  Incidence of hemangiosarcoma, uterus: 0%
  Incidence of hemangiosarcoma, vagina: 0%
Tg.rasH2 mice; females, high-dose (80 mg/kg/day)
  Survival rate: 92%
Tg.rasH2 mice; females, low-dose (10 mg/kg/day)
  Survival rate: 96%
Tg.rasH2 mice; females, mid-dose (30 mg/kg/day)
  Survival rate: 100%
Tg.rasH2 mice; [7]
  Incidence of Harderian gland adenoma: 4%
  Incidence of Harderian gland carcinoma: 0%
  Incidence of hemangiosarcoma, combined: 4%
  Incidence of hemangiosarcoma, kidney: 4%
  Incidence of hemangiosarcoma, spinal cord, lumbar: 0%
  Incidence of hemangiosarcoma, spleen: 0%
Tg.rasH2 mice; [8]
  Incidence of Harderian gland adenoma: 0%
  Incidence of hemangiosarcoma, combined: 0%
  Incidence of hemangiosarcoma, kidney: 0%
  Incidence of hemangiosarcoma, spinal cord, lumbar: 0%
  Incidence of hemangiosarcoma, spleen: 0%
Tg.rasH2 mice; [9]
  Incidence of Harderian gland adenoma: 0%
  Incidence of hemangiosarcoma, combined: 12%
  Incidence of hemangiosarcoma, kidney: 0%
  Incidence of hemangiosarcoma, spinal cord, lumbar: 0%
  Incidence of hemangiosarcoma, spleen: 12%
Tg.rasH2 mice; [10]
  Incidence of lung adenoma, multiple: 0%
  Incidence of lung adenoma, single: 20%
  Incidence of lung carcinoma: 0%
  Incidence of lung tumors, combined: 20%
Tg.rasH2 mice; [11]
  Incidence of Harderian gland carcinoma: 0%
  Incidence of lung adenoma, multiple: 0%
  Incidence of lung adenoma, single: 8%
  Incidence of lung carcinoma: 0%
  Incidence of lung tumors, combined: 8%
Tg.rasH2 mice; [12]
  Incidence of Harderian gland carcinoma: 4%
  Incidence of lung adenoma, multiple: 0%
  Incidence of lung adenoma, single: 4%
  Incidence of lung carcinoma: 0%
  Incidence of lung tumors, combined: 4%
Tg.rasH2 mice; males, high-dose (40 mg/kg/day)
  Survival rate: 100%
Tg.rasH2 mice; males, low-dose (5 mg/kg/day)
  Survival rate: 100%
Tg.rasH2 mice; males, mid-dose (15 mg/kg/day)
  Survival rate: 100%
Tg.rasH2 mice; mouse, in vivo
  Incidence of hemangiosarcoma vs vehicle control: did not significantly increase
  Incidence of lung tumors vs vehicle control: did not significantly increase
  Incidence of non-vascular and non-pulmonary tumors: did not significantly increase
  Non-neoplastic microscopic findings: did not produce non-neoplastic microscopic findings
Tg.rasH2 mice; mouse, in vivo, 30 mg/kg/day
  Mean food consumption from Day 1 to 183 vs vehicle control: significantly increased
Tg.rasH2 mice; mouse, in vivo, po
  Clinical signs of toxicity: did not produce clinical signs of toxicity
  Effect on food consumption: did not affect food consumption
Mouse lymphoma cells
  Genotoxicity in mouse lymphoma assay: negative

From paper PMC9411704, “Assessment of the Carcinogenic Potential of Pretomanid in Transgenic Tg.rasH2 Mice” (International Journal of Toxicology, 2022)
